The record followed here is ChEMBL document CHEMBL1201862, “PubChem BioAssay data set” (2004).

Assay [1] has as its target Induced myeloid leukemia cell differentiation protein Mcl-1 (Homo sapiens, UniProt Q07820). The assay is classed as functional.
Assay [2] deals with Eukaryotic translation initiation factor 4E (Mus musculus, UniProt P63073). The assay is described as follows: blockers of eIF4G binding by eIF4E – biochemical, TR-FRET, dose response (AID 855).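 Further: potency for disrupting eIF4E binding to eIF4GI seen as loss of FRET.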 The assay is classed as functional.
In assay [3] the target is T1, Carboxy-terminal domain RNA polymerase II polypeptide A small phosphatase 1 (Homo sapiens, UniProt Q9GZU7).
T1 sequence (Q9GZU7 whole entry): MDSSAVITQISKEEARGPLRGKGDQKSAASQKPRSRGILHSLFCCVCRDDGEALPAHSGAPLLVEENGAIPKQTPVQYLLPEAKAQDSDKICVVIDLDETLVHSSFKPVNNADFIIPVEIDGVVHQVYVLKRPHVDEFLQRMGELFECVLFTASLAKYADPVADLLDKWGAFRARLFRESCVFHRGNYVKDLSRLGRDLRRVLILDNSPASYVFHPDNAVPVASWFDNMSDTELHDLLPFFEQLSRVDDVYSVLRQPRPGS
In words: CTDSP1 inhibitors, concentration-response, biochemical, absorbance readout, ultra-high-throughput screen actives (AID 540297). In kind it is functional.

The target in assay [4] is T2, Caspase-6 (Homo sapiens, UniProt P55212).
T2 sequence (P55212 whole entry): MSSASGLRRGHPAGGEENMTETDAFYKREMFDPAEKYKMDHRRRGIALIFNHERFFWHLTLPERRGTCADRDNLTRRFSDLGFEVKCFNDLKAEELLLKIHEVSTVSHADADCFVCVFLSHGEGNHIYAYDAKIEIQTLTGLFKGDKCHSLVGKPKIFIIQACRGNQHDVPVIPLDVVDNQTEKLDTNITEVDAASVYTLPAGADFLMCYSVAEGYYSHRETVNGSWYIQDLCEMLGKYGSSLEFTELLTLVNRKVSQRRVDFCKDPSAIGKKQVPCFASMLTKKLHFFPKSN
In words: inhibition of CASP6 peptide cleavage – biochemical, VEID-R110 fluorescence, cherry-pick, dose response (AID 720632).

Assay [5] deals with DNA dC->dU-editing enzyme APOBEC-3G (Homo sapiens, UniProt Q9HC16). The assay is described as follows: Dose Response confirmation of small molecule APOBEC3G DNA Deaminase Inhibitors via a fluorescence-based single-stranded DNA deaminase assay. [Related pubchem assays (depositor defined):AID493012, AID493028]. The assay is classed as functional.
For assay [6], the target named is FAD-linked sulfhydryl oxidase ALR (Homo sapiens, UniProt P55789). In words: ALR-catalysed DTT oxidation blockers – biochemical, H2O2 detection, luminescence, cherry-pick, dose response (AID 493248).
For assay [7], the system named is Streptococcus sp. 'group A'. In words: Streptococcus pyogenes SK(-)GAS viability under kanamycin – luminescence, BacTiterGlo, confirmation, counter-screen for streptokinase expression inhibitor project, dose response (AID 1900). The assay is classed as functional, organism-based.
Assay [8] has as its target T3, Streptokinase A (Streptococcus pyogenes serotype M1, UniProt P10520).
T3 sequence (P10520 whole entry): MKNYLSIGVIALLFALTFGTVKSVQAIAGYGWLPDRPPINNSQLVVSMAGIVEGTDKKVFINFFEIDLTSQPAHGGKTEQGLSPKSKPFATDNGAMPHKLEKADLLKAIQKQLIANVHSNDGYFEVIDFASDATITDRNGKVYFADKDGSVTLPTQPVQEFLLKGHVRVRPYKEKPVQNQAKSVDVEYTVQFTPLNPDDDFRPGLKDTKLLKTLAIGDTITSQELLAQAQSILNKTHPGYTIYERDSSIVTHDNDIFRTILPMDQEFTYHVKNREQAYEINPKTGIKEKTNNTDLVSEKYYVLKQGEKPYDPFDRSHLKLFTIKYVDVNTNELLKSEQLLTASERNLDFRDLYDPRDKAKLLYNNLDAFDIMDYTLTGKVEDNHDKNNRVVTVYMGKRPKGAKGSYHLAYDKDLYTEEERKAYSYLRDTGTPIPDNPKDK
In words: viability-normalized secreted streptokinase activity reduction – plasminogen activation absorbance, OD405, dose response (AID 1914).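 Further: secreted streptokinase activity via plasminogen activation per viability signal from cell pellet.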 In kind it is functional, Streptococcus pyogenes M1 GAS.

Assay [9] has as its system Streptococcus. In words: GAS UMAA2166 growth inhibition – luminescence, BacTiterGlo, counter-screen for streptokinase expression inhibitor project, dose response (AID 1915).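 Further: potency for reduction of bacterial viability or growth.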 In kind it is functional, organism-based.
Assay [10] can be described thus: Luminescence Cell-Based Dose Retest to Confirm Inhibitors of Cancer Stem Cells. [Related pubchem assays (depositor defined):AID2717, AID2721]. In kind it is functional. The following applies: Homo sapiens.
Assay [11] is described as follows: HEK-293T cell viability reduction – luminescence, B-cell screen hits, cytotoxicity control for BCR NF-kB inhibitor project, dose response (AID 489021).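 Further: HEK-293T cells carrying an NF-kB luciferase reporter; cells exposed to compound for about 14 hours before viability readout.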 The assay is classed as functional, cell-based.
The target of assay [12] is Cytochrome P450 2D6 (Homo sapiens, UniProt P10635).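 Further: CYP2D6 member of a cytochrome P450 panel assay.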
For assay [13], the target named is Large T antigen (Simian virus 40, UniProt P03070). In kind it is functional, Betapolyomavirus macacae.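 Further: Confirmatory-stage PubChem screen for compounds that inhibit SV40 T antigen.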
Assay [14] in a line: A cytotoxicity screen of small molecule inhibitors of the PhoP region in Salmonella typhi identified in the primary screen. [Related pubchem assays: 1850, 1864, 1985 ]. The assay is classed as functional.
Assay [15] deals with T4, Heat shock factor protein 1 (Mus musculus, UniProt P38532).
T4 sequence (P38532 whole entry): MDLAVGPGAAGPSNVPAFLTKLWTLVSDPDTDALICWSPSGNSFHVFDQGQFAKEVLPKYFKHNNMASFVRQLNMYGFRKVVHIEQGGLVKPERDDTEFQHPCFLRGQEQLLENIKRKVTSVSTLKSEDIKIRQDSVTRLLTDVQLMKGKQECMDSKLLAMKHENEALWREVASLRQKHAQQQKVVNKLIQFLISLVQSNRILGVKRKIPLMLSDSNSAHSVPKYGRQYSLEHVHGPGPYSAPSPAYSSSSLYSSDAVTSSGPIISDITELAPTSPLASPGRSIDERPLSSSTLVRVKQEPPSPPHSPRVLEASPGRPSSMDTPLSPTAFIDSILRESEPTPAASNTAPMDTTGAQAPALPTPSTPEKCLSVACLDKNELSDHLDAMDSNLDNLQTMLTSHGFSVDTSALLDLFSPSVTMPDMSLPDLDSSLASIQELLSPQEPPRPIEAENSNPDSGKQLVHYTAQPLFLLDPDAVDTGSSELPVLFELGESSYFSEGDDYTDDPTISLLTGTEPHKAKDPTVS
In words: decrease of HSF1-responsive luciferase luminescence – cell-based, NIH3T3, dose retest, confirmation (AID 2382).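 Further: NIH3T3 fibroblasts with HSF1-driven luciferase reporter stressed by proteasome inhibitor MG132; luminescence from HSF1-driven luciferase expression after 8 hours of MG132 stress.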 The assay is classed as functional.

For assay [16], the target named is T5, Mucolipin-3 (Homo sapiens, UniProt Q8TDD5).
T5 sequence (Q8TDD5 whole entry): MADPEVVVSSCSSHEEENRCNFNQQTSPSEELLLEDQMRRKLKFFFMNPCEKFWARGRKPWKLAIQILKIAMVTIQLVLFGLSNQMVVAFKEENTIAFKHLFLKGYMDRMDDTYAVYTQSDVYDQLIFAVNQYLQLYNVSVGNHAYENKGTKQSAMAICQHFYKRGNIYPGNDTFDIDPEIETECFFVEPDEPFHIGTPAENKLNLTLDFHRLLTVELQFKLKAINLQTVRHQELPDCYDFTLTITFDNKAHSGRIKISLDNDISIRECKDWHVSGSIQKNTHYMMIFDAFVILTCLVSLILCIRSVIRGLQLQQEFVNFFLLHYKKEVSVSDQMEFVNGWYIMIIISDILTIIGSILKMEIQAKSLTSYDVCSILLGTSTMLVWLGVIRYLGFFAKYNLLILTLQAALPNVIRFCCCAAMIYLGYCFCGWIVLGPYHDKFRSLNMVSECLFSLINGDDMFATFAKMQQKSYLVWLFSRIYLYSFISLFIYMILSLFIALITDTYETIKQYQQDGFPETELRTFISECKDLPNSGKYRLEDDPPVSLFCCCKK
The assay is described as follows: Dose response cell-based high-throughput screening assay for agonists of the transient receptor potential channel ML3 (TRPML3). [Related pubchem assays: 1526, 1424, 1448 ]. In kind it is functional.

Assay [17] has as its target Ion channel NompC (Danio rerio, UniProt Q7T1G6). The assay is described as follows: Fluorescence counterscreen assay for TRPML3 agonists: dose response cell-based high-throughput screening assay to identify agonists of the transient receptor potential channel N1 (TRPN1). [Related pubchem assays: 1526, 1424, 1448 ]. The assay is classed as functional.
Assay [18] deals with T6, Short transient receptor potential channel 4 (Mus musculus, UniProt Q9QUQ5).
T6 sequence (Q9QUQ5 whole entry): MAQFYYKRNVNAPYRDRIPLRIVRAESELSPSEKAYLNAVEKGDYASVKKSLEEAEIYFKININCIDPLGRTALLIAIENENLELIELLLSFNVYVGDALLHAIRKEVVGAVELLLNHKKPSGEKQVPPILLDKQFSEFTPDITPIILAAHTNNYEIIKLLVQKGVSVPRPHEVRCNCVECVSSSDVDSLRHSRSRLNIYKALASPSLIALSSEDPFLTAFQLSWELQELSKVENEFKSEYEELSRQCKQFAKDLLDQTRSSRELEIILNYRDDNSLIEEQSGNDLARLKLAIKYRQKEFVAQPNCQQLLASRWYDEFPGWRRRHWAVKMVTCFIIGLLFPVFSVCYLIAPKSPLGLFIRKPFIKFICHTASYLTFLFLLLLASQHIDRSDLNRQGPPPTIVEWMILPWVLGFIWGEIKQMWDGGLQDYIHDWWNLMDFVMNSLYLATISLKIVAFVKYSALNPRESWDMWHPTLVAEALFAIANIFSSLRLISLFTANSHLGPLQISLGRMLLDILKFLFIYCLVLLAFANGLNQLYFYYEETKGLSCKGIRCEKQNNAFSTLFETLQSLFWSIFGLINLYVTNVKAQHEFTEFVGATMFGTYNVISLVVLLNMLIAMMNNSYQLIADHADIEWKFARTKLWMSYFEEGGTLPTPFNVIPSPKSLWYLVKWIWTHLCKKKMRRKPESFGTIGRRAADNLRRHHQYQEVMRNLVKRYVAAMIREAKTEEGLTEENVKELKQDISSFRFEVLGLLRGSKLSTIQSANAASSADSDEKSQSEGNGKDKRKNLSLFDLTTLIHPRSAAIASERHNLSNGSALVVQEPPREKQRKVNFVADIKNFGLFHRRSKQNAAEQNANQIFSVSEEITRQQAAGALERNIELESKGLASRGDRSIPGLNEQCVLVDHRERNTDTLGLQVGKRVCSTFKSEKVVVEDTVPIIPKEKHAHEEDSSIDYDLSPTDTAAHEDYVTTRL
The assay is described as follows: calcium entry via TRPC4 opening agents – cell-based, HEK293 TRPC4/mu-opioid, Fluo-4 calcium, dose response (AID 434937). In kind it is functional.

Counter-ions that a name gives are not always drawn. Activity calls are given as the source filed them. A value given as a limit tells only on which side of the number the result lay.

Eukaryotic translation initiation factor 4E, sequence (P63073 whole entry, the tested form may be a part): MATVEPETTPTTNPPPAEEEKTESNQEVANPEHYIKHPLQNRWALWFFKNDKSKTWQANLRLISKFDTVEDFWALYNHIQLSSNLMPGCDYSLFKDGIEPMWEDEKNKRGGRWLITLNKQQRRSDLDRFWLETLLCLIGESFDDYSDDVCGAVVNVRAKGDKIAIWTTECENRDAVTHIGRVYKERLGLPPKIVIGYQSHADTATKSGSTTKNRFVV
DNA dC->dU-editing enzyme APOBEC-3G, sequence (Q9HC16 whole entry): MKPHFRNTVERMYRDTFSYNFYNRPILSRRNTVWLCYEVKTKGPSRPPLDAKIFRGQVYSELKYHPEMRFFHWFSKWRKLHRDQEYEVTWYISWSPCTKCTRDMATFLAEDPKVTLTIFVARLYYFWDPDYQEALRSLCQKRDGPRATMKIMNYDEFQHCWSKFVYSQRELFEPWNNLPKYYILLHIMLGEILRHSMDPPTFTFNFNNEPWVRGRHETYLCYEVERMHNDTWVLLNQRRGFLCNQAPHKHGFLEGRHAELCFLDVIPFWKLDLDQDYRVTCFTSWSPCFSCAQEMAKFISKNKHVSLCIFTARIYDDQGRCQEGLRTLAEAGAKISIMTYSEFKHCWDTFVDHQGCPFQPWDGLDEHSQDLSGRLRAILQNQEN
Cytochrome P450 2D6, sequence (P10635 whole entry): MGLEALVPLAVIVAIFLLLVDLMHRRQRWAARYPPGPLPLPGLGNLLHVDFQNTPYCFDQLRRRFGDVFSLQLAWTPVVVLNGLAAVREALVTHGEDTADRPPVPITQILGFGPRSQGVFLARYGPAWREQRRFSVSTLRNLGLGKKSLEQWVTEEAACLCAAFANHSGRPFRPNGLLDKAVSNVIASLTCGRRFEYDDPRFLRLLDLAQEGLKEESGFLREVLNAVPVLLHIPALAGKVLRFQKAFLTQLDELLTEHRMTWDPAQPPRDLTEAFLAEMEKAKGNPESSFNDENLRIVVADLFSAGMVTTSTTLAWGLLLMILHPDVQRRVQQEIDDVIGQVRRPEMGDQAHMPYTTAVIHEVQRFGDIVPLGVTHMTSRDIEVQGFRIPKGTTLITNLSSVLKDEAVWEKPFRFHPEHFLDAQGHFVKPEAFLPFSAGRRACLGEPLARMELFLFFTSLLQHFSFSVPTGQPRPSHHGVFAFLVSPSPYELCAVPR
Induced myeloid leukemia cell differentiation protein Mcl-1, sequence (Q07820 whole entry): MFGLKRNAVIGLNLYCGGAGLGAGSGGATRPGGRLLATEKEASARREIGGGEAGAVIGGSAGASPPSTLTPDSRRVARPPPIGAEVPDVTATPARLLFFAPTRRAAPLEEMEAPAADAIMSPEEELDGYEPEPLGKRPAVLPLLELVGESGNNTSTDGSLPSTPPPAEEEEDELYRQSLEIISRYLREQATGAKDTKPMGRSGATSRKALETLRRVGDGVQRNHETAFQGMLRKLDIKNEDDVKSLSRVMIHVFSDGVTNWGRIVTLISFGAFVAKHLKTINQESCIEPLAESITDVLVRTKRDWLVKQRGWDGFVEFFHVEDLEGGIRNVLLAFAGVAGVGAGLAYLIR
Ion channel NompC, sequence (Q7T1G6 whole entry): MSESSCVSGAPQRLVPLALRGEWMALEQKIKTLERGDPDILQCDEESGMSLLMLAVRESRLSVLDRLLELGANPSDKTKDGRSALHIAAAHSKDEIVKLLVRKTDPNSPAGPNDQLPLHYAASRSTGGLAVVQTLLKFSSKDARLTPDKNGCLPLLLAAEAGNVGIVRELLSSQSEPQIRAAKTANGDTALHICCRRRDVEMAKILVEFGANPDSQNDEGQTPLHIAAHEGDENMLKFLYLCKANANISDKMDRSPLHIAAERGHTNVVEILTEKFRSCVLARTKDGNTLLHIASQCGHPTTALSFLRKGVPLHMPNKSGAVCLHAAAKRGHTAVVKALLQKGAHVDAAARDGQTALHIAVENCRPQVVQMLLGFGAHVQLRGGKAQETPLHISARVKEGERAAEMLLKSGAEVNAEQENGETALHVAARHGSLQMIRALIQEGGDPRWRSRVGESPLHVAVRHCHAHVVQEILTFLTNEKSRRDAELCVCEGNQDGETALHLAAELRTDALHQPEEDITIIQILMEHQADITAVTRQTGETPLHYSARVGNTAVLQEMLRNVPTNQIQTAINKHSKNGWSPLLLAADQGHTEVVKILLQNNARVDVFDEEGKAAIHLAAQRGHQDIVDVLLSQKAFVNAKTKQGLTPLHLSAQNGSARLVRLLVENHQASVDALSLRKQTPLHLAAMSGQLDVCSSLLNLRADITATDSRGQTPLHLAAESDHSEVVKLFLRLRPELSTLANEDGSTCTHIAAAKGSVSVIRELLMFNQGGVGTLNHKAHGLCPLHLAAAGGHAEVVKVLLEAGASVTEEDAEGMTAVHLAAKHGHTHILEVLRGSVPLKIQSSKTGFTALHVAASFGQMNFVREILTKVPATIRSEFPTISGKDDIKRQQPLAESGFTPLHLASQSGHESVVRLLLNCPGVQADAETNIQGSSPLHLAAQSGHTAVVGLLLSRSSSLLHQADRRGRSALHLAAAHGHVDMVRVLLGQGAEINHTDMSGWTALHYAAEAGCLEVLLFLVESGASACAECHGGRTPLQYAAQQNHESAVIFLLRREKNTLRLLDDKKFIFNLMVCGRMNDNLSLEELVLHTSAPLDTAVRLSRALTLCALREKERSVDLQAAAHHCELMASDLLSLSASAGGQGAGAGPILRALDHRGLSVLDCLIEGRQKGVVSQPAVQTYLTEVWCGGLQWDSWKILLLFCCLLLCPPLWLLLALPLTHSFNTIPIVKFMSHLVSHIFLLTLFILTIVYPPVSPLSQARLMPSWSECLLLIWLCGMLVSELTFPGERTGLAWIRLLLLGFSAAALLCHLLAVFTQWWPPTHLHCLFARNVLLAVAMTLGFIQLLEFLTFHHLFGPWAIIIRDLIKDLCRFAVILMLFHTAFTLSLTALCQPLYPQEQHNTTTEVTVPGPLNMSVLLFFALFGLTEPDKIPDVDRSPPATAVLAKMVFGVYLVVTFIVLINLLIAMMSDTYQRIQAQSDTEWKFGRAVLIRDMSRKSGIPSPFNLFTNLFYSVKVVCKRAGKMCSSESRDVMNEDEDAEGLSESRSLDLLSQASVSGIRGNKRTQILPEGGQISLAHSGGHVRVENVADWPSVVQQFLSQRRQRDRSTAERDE
FAD-linked sulfhydryl oxidase ALR, sequence (P55789 whole entry): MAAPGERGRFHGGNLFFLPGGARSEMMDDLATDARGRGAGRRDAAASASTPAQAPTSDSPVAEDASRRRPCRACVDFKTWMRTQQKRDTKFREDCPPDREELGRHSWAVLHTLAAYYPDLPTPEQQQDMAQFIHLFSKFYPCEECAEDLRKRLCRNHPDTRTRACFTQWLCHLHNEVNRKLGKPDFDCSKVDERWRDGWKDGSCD
Large T antigen, sequence (P03070 whole entry): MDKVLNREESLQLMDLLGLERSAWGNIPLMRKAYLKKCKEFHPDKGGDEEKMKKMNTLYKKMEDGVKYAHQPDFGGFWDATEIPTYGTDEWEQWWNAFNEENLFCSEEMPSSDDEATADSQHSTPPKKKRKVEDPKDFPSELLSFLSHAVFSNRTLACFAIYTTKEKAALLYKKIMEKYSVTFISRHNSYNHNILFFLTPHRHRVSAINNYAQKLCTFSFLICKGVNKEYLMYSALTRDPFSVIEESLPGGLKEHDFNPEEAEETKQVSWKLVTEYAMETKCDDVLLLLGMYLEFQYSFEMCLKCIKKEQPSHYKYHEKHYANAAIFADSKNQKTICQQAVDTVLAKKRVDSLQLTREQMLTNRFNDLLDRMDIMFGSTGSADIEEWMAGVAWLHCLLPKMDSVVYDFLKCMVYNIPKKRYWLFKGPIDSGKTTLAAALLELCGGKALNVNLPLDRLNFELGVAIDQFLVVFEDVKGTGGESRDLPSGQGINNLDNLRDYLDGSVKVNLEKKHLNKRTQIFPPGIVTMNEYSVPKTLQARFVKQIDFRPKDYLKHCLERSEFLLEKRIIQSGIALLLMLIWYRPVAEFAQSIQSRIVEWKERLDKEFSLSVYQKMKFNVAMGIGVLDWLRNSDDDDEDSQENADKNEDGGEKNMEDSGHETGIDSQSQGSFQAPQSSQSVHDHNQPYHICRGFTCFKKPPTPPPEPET

`O=C(CSc1ccsc1[N+](=O)[O-])Nc1cccc(F)c1`: the IC50 in assay [1] was 2.92 µM (active); in assay [2], 50 µM (inactive); in assay [3] it was 3.65 µM (active). The half-maximal activity concentration (AC50) in assay [4] is 16.3 µM (active).
As to `Sc1nnc(Nc2ccccc2)s1`, the IC50 in [5] was 0.892 µM (active). Further, in [6], the concentration at half-maximal activity (AC50) is 1.91 µM (active).
With `CCOC(=O)c1sc(NC(=O)c2cc(-c3ccccc3C)nc3ccccc23)c(C#N)c1C`, the concentration for a half-maximal effect (EC50) in assay [7] was 1.04 µM (active); in assay [8], > 150 µM (not active); in [9] it was 36.2 µM (active). The AC50 in assay [10] was 0.693 µM (active). For the same compound, the IC50 in assay [11] was 62.1 µM (inactive).
`COc1ccc(/C=N/n2c(S)nnc2-c2cccs2)cc1`: the figures for the half-maximal effective concentration (EC50) in assay [7], in assay [8] and in [9] were 7.17 µM (active), > 150 µM (not active) and 15.6 µM (active), respectively. The IC50 in [2] was > 64 µM (inactive). The AC50 in assay [12] was 3.55 µM (inconclusive).
Take `CC(C)CCn1c(=O)c2ccccc2n2c(=S)[nH]nc12`: the values for the IC50 in [13] and in assay [5] were 14.7 µM (active) and 1.19 µM (active), respectively.
For the compound `Cc1ccc(S(=O)(=O)NCC(=O)N(CC(=O)NCC2CCCO2)C2CCCC2)cc1` (stereo unspecified), the IC50 in assay [2] is > 64 µM (inactive).
In the case of `CCOC(=O)C(CC)Sc1ccc2nnc(-c3cccnc3)n2n1` (stereo unspecified), the EC50 was > 50 µM (active) in assay [14] and > 195 µM (not active) in assay [15].
As to `Oc1ccc(C(=S)N2CCN(c3cccc(Cl)c3)CC2)cc1`, the half-maximal inhibitory concentration (IC50) in assay [5] was 81 µM (active).
Consider `COC(=O)C1=CCCN(C)C1` [ARECOLINE HYDROBROMIDE], for which the EC50 is 2.26 µM (active) in assay [16], > 29.9 µM (not active) in [17] and 6.68 µM (active) in assay [18].
In the case of `Cn1nc(-c2ccc(N3CCOCC3)c(NS(=O)(=O)c3ccccc3)c2)c2ccccc2c1=O`, the IC50 in [11] was > 80 µM (inactive).
Regarding `O=C(Nc1cccc([N+](=O)[O-])c1)Nc1cccs1`, the EC50 in assay [14] was > 50 µM (active).
On the same count and under the same terms, the value for `Cc1ccc(CCNC(=O)c2cc(S(=O)(=O)N3CCCCC3)c[nH]2)cc1` was > 50 µM (active).
For `COc1ccc(-c2c/c(=N\CC(=O)O)c3ccccc3o2)cc1.[O-][Cl+3]([O-])([O-])O`, the EC50 in [14] was > 50 µM (active).
In the case of `CCOC(=O)CSc1nnc(CSc2nc(C)cc(C)n2)n1Cc1ccco1`, in [2], the IC50 was > 64 µM (inactive).
With `COc1ccc(-n2ncc3c(N4CCC(C(N)=O)CC4)ncnc32)cc1`, the IC50 in assay [11] was > 80 µM (inactive).
